These results are taken from PMC9611598, “Cyclodextrin Derivatives as Promising Solubilizers to Enhance the Biological Activity of Rosmarinic Acid” (Pharmaceutics, 2022).

The target of test [1] is AChE (acetylcholinesterase). Description: Ellman assay, […] nm. Particulars: acetylthiocholine iodide, DTNB, Tris-HCl pH 8.0, room temperature; RA in DMSO, 2.5-25 mg/mL test solutions, 20 µL per well; value may refer to prepared solution, not final well concentration. Type of test: biochemical. For orientation: In Ellman's method for cholinesterases, released thiocholine reacts with DTNB.

For the next test, the target named is T1, tyrosinase.
T1 construct: gene PPO3; mushroom tyrosinase is a guess from usual assay practice
Nature of the test: L-DOPA oxidation, […] nm. It is filed as biochemical. To be noted: 2.0 mM L-DOPA stock, phosphate buffer pH 6.8, room temperature; RA in 50% DMSO, 0.05-2.5 mg/mL test solutions, 25 µL per well; value may refer to prepared solution, not final well concentration.

Structures are written as SMILES. In brackets after ≈: the same amount, converted by molar mass.

By IC50 is commonly meant the midpoint of a concentration-inhibition curve. A higher IC50 goes with a need for much substance.

For the compound `O=C(/C=C/c1ccc(O)c(O)c1)O[C@H](Cc1ccc(O)c(O)c1)C(=O)O` [RA, rosmarinic acid], the values for the IC50 (in test [1]; at tyrosinase) were 8983 ± 162 µg/mL (≈ 24.9 mM) and 1591 ± 77 µg/mL (≈ 4.42 mM), respectively.
